Test results from patent US20220226311A1, “PROCASPASE-3 ACTIVATION AND IMMUNOTHERAPY FOR TREATMENT OF CANCER” (The Board of Trustees of the University of Illinois, priority 2019, published 2022).

Assays:
[1] = system: CT-26_WT cells; experiment: CT-26_WT subcutaneous tumor model; type: in vivo, BALB/c mice; details: sc CT-26_WT; PAC-1 100 mg/kg i.p., anti-PD-1 10 mg/kg, 2 or 4 doses; vs vehicle+anti-IgG
Experimental: FIG. 9. Growth of CT-26_WT in BALB/c mice after 2 doses (A) versus 4 doses (B). Open circle=vehicle+anti-IgG2A antibody; square=PAC-1 (100 mg/kg)+anti-IgG2a antibody; triangle=vehicle+anti-PD-1 mAb; inverted triangle=PAC-1 (100 mg/kg)+anti-PD-1 mAb.
FIG. 10. Analysis of treatment of BALB/c mice with PAC-1 and anti-PDL1 mAb. Open circle=vehicle+anti-IgG2A antibody; square=PAC-1 (100 mg/kg)+anti-IgG2a antibody; triangle=vehicle+anti-PD-1 mAb; inverted triangle=PAC-1 (100 mg/kg)+anti-PD-1 mAb.
FIG. 8 illustrates the development of a CT-26_WT subcutaneous disease model in BALB/c mice. At day 0, BALB/c mice were injected subcutaneously with 1×10^6 CT-26_WT cells. At various day intervals, selected mice were injected (i.p.) with an empty vehicle, PAC-1 (100 mg/kg), anti-PD-1 antibody (10 mg/kg; 2 doses), anti-PD-1 antibody (10 mg/kg; 4 doses), or a combination of PAC-1 (100 mg/kg) and anti-PD-1 antibody (10 mg/kg;) as shown in Table 1.

[2] = system: cancer cells; experiment: DNA damage in cancer cells; type: cell-based
Excerpt: (§1) Increased immune cell infiltration in PAC-1 treated GL261 tumors. […] 3) PAC-1 is efficacious in in vivo settings with intact immune systems, including syngeneic mouse (EL4, K7M2, GL261) (FIG. 7) and rat (9L) models, and canine cancer patients.

[3] = Secondary malignancies in pet dogs with cancer treated with PAC-1; type: in vivo; details: pet dogs treated >6 months, >12 months after completion of therapy
Excerpt: (§2) It should be noted that cancer drugs can induce secondary cancers, for example, almost ⅓ of patients treated with single-agent vemurafenib develop secondary malignancies; but to date this has not been observed for PAC-1. Just as PAC-1 induces PC-3 cleavage selectively in cancer cells, the resulting caspase-3 activity should lead to selective MLH1 cleavage in cancer cells. It is worth noting that Turcot syndrome, a constitutional mismatch repair deficiency (CMMRD) cancer prone syndrome, is correlated with biallelic germline mutations in MMR genes, resulting in the development of GBM at a young age. Turcot syndrome and other CMMRD syndromes (i.e. Lynch Syndrome) point to the importance of maintaining MMR protein function, implying that inducing MLH1 cleavage/loss in a non-targeted, pan-organism fashion is not a viable therapeutic strategy. However, the strategy with PAC-1 leverages the well-known overexpression of PC-3 in cancer cells (including GBM) resulting in targeted MLH1 cleavage in tumors, leaving MMR proteins in normal cells unperturbed and operating.

[4] = system: lung tumor microenvironment; experiment: Immune cell populations in lungs, PBMC and spleen after tumor challenge; type: in vivo, BALB/c mice
Excerpt: FIG. 13. Analysis of neutrophil and macrophage populations after treatment with PAC-1 14 days post-tumor challenge in lungs, PBMC, and spleen. Open circle=vehicle+anti-IgG2A antibody; square=PAC-1+anti-IgG2a antibody; triangle=vehicle+anti-PD-1 mAb; inverted triangle=PAC-1+anti-PD-1 mAb.
FIG. 14. Analysis of T-cells, B-cells, and NK cell populations in the lungs, PBMC, and spleen of BALB/c mice 26 days post combinatorial PAC-1 and anti-PD-1 treatment. Open circle=vehicle+anti-IgG2A antibody; square=PAC-1+anti-IgG2a antibody; triangle=vehicle+anti-PD-1 mAb; inverted triangle=PAC-1+anti-PD-1 mAb.
FIG. 15. PD-L1 expression on the surface of dendritic cells and CD45^− tumor cells 26 days post-tumor challenge in lungs, PBMC, and spleen of BALB/c mice. Open circle=vehicle+anti-IgG2A antibody; square=PAC-1+anti-IgG2a antibody; triangle=vehicle+anti-PD-1 mAb; inverted triangle=PAC-1+anti-PD-1 mAb.

[5] = Tolerability of PAC-1 in the human clinical trial; type: in vivo; details: patients taking PAC-1 for over 10 months (one at 450 mg daily)
Excerpt: as §2

[6] = combination with immune cytokine TRAIL, in culture; cited from earlier work
[7] = system: cancer cells; experiment: Transcript profile of cancer cells treated with PAC-1; type: cell-based
Excerpt: as §1

[8] = system: HT-29 cells; experiment: Western blot for MLH1 and PARP-1 cleavage after PAC-1 treatment of cell lines; type: cell-based
Experimental: FIG. 3. PAC-1 treatment leads to MLH1 cleavage in the absence of Apoptotic Death Markers. Cell lines were incubated with indicated concentrations of PAC-1 for 72 hours, followed by western blot analysis for MLH1 protein level, as well as PARP-1, cleaved PARP-1 (c-PARP-1 is an apoptosis maker), and beta-actin (loading control).
Results. MSS/MSI status of colon cancer cell lines have been reported (Ahmed, D., et al., Oncogenesis 2013, 2, e71), allowing for selection of HT-29, an MSS colon cancer cell line. To date, studies that have focused on the cleavage of MLH1 have utilized strategies that broadly induce high levels of apoptotic cell death (i.e., with staurosporine). HT-29 cells were treated with sub-lethal PAC-1.

[9] = system: PMBCs; details: cited from earlier work
[10] = system: plasma cytokines; experiment: Cytokine array of plasma from mice treated with PAC-1; type: in vivo, BALB/c mice; details: PAC-1 x5 doses, pooled samples from 2-3 mice
Experimental: FIG. 12. A) Example treatment protocol. B) Cytokine array of plasma from BALB/c mice treated with PAC-1.
[…] were centrifuged at 8000 g for 10 mins, and plasma/supt was transferred to new tubes. Cytokine array was performed on 4 groups using pooled samples from 2-3 mice:
Signals were quantified using ImageJ. Data was normalized by calculating the ratio of PAC-1/vehicle mean pixel density as shown in the plot.

[11] = system: GL261 neurospheres; experiment: Tumor infiltrating lymphocytes (CD3 staining) in orthotopic GL261 syngeneic model; type: in vivo, C57BL/6 mice; details: single-agent PAC-1 100 mg/kg PO x 10 days
Experimental: (§3) FIG. 4. PAC-1 treatment of mice with syngeneic tumors increases the numbers of tumor infiltrating lymphocytes. A) C57BL/6 mice with orthotopic transplant of GL261 neurospheres. Tumors were allowed to establish for 10 days, then mice (n=3/group) were treated with or without PAC-1 (100 mg/kg PO×10 days), then sacrificed. Tumors were stained for CD3 (brown) to identify T cell TILs. Data presented as average CD3^+ per 4 HPF/mouse. Magnification 100×. B) C57BL/6 mice with subcutaneous transplant of B16F10 cells. Tumors were allowed to establish for 7 days, then mice (n=8/group) were treated with or without PAC-1 (100 mg/kg IP×2×14 days), then sacrificed. Tumors were stained for CD3 (brown) to identify T cell TILs. Data presented as average CD3^+ per 10 HPF/mouse. Magnification 100×.

[12] = system: B16F10 cells; experiment: Tumor infiltrating lymphocytes (CD3 staining) in subcutaneous B16F10 syngeneic model; type: in vivo, C57BL/6 mice; details: single-agent PAC-1 100 mg/kg IP x2 x14 days
Experimental: as §3

[13] = clinical; details: human, in vivo, 450 mg
[14] = Myelosuppression in animals and humans, including IND-enabling rat and dog studies; type: in vivo, mice, rats, dogs, or humans; details: also at very high doses in IND-enabling rat and dog studies
Excerpt: as §1

[15] = single-agent treatment; cited from earlier work
[16] = HT-29 cells, sub-lethal PAC-1, 72 hours

Row | SMILES | Tumor growth [1] | DNA damage [2] | Secondary malignancies [3] | Neutrophils and macrophages in lung tumor microenvironment ([4]; day 14 post-tumor challenge) | Macrophages and dendritic cells in tumor microenvironment ([4]; day 26) | Ill effects on prolonged dosing [5] | Extrinsic cell death [6] | Markers associated with resistance to anti-PD-1 therapy (IPRES) [7] | Upregulated genes in transcript profile [7] | Selectivity of MLH1 cleavage, cancer cell lines vs normal cell line HFF-1 ([8]; 72 hours) | PARP-1 cleavage (apoptosis marker) [8, 16] | PC-3 activation and MLH1 cleavage [8, 16] | Toxicity to PBMCs [9] | Plasma cytokines (ratio PAC-1/vehicle mean pixel density) [10] | Number of TILs (CD3+ cells) [11] | Number of TILs (CD3+ cells) [12] | Cmax [13] [µM] | Myelosuppression [14] | Fraction of patients developing secondary malignancies [15]
1 | C=CCc1cccc(/C=N/NC(=O)CN2CCN(Cc3ccccc3)CC2)c1O [PAC-1] | large variation in controlling sc CT-26_WT growth | causes DNA damage selectively in cancer cells | remain free of secondary malignancies | appear to increase | have decreased | no ill effects | can enhance extrinsic cell death in culture | no upregulation | upregulation of key genes including TNFα, innate immune system agonists IL-1β and IL-8 | cancer cell specific MLH1 cleavage | little to no PARP-1 cleavage | induced PC-3 activation and MLH1 cleavage | minimal toxicity to PMBCs | increase in cytokines that promote macrophage differentiation as well as B-cell and T-cell proliferation | increased the number of TILs | increased the number of TILs | 7.8 | has not been observed to induce myelosuppression | –
2 | CCCS(=O)(=O)Nc1ccc(F)c(C(=O)c2c[nH]c3ncc(-c4ccc(Cl)cc4)cc23)c1F [vemurafenib] | – | – | – | – | – | – | – | – | – | – | – | – | – | – | – | – | – | – | ⅓
